Legend:
laser induced CNV [1] = test: Laser induced CNV mouse model, imageological examination (OCTA, FFA, OCT); assay type: in vivo, C57BL/6 mice; conditions: i.v. day 3 and 5, AS16 equivalent 2 mg/kg, day 7
Protocol: Four laser spots were produced on the fundus of mice by 810 nm laser to induce CNV. Specifically, C57BL/6 mice (6-8 w) were anesthetized with 1% pentobarbital sodium (40 mg/kg). Then their pupils were dilated with 0.5% tropicamide eyedrops and received local anesthesia by tetracaine eye drops, followed by carboxymethylcellulose sodium eye drops for prevention of ocular surface dehydration. Each mouse's eyes were applied four laser (six in case of western blot analysis) burns (810 nm wavelength, 140 mW of power, 75 μm of spot size, 75 ms of duration) with OcuLight Infrared Laser System at almost equal distance to the optic nerve head. Afterwards, the mice received chloramphenicol eye drops for infection prevention and rested on heating pad until consciousness. […] On day 3 and day 5 after laser photocoagulation, 2 mg/kg AS16 peptide and quantity equivalent nanoLAMPs were administered intravenously through tail veins. […] On day 7 post CNV induction, FFA (fluorescence fundus angiography) and OCTA (optical coherence tomography angiography) images of each group was collected, and the mice were then euthanized. […] Only the scan that passed through the center of the lesion was used to measure the thickness and length of the CNV lesion, which was analyzed and calculated by using ImageJ software and GraphPad Prism. […]

HUVEC cells [2] = test: Wound healing assay; assay type: cell-based, human; conditions: without light irradiation; AS16 5 μM
Protocol: 5*10^5 HUVEC cells were seeded in the 24-well plates and incubated until they reached 90% confluence. Afterwards, a scratch crossing each well was conducted by 200 μL pipette head. The cells were then be washed with PBS for 2 times to remove the flouting cells and incubated with 1 ml DMEM medium with 5% FBS. The grouping and treatment method was consistent with above. The data of each group was measured and analyzed by Image J and GraphPad Prism, respectively.
(§1) To verify the anti-angiogenic property of nanoLAMPs in vitro, tube formation assay, migration assay, and wound healing assay were also conducted on HUVECs and the concentration of each group was set equal to nanoLAMPs containing 5 μM AS16 peptide.

HUVEC cells [3] = test: Migration assay (trans-well); assay type: cell-based, human; conditions: without light irradiation; AS16 equivalent 5 μM; 24 h
Protocol: 200 μL serum-free medium containing 2*10^4 HUVEC cells were seeded in the upper chamber of the trans-well and 600 μL full medium was loaded in the lower chamber. Different drugs were added to the upper chamber. The grouping and treatment method as well as the calculation was consistent with above.
as §1

laser induced CNV [4] = test: Laser induced CNV mouse model, isolated tissue (choroidal flat mounts CD31/Ki-67, H&E); assay type: in vivo, C57BL/6 mice; conditions: without light irradiation; systemic administration
Protocol: Four laser spots were produced on the fundus of mice by 810 nm laser to induce CNV. Specifically, C57BL/6 mice (6-8 w) were anesthetized with 1% pentobarbital sodium (40 mg/kg). Then their pupils were dilated with 0.5% tropicamide eyedrops and received local anesthesia by tetracaine eye drops, followed by carboxymethylcellulose sodium eye drops for prevention of ocular surface dehydration. Each mouse's eyes were applied four laser (six in case of western blot analysis) burns (810 nm wavelength, 140 mW of power, 75 μm of spot size, 75 ms of duration) with OcuLight Infrared Laser System at almost equal distance to the optic nerve head. Afterwards, the mice received chloramphenicol eye drops for infection prevention and rested on heating pad until consciousness. […] On day 3 and day 5 after laser photocoagulation, 2 mg/kg AS16 peptide and quantity equivalent nanoLAMPs were administered intravenously through tail veins. […] On day 7 post CNV induction, FFA (fluorescence fundus angiography) and OCTA (optical coherence tomography angiography) images of each group was collected, and the mice were then euthanized. […] Flat-mounted RPE-choroid slides were prepared by making 4 cuts from margin to the optic nerve, and the fluorescence images were acquired by confocal microscopy (LMS980 Carl Zeiss). The CNV lesion area was quantitatively analyzed by ImageJ software. […]

[5] = test system: IL-2 and TNF-α gene expression in Jurkat T cells; test: RT-qPCR of cytokine gene expression in Jurkat T cells co-cultured with MDA-MB-231 cells (PD-L1 blockade); assay type: cell-based; conditions: Jurkat T cells after co-culture with MDA-MB-231 cells; FM12 released from cFM12 nanoparticles; vs PBS control
Excerpt: FIGS. 13A-F. BODIPY-caged FM12 peptide (cFM12) nanoparticles for photo-triggered PD-L1 blockade. […] (E) Size distribution of nanoparticles. (F) Schematic diagram of cFM12 nanoparticles. (*: p<0.05; **: p<0.01; ***: p<0.001). The data are presented as mean±SEM.
To further explore whether the BODIPY photocage can be utilized to deliver other hydrophilic peptides, a peptide inhibitor (FPNWSLRPMNQM, SEQ ID NO: 2, FM12) targeting programmed death ligand 1 (PD-L1) was conjugated with BODIPY at N-terminus to synthesize BODIPY-caged FM12 (cFM12). The conjugate could also form stable polymeric nanoparticles with the help of PEG3.4K-PLA5K. […] For nanoparticle preparation, in brief, 2 μL of 10 mg/mL cFM12 was mixed with 2 μL of 100 mg/mL PEG3.4K-PLA5K in DMSO solution. […] As shown in FIGS. 13e and 13f, the fabricated nanoparticles had well-dispersed size distribution with diameter around 122 nm and PDI around 0.2.

Compound: COc1ccc(C=CC2=[N+]3C(=C(CO)c4c(C)cc(C=Cc5ccc(OC)cc5)n4[B-]3(C)C)C(C)=C2)cc1 [BODIPY, (3,7-bis((E)-4-methoxystyryl)-1,5,5,9-tetramethyl-5H-4λ4,5λ4-dipyrrolo[1,2-c:2′,1′-f][1,3,2]diazaborinin-10-yl)methanol]
- CNV area by OCTA (laser induced CNV [1]; with light irradiation (656 nm, 50mw/cm^2, 5 min)): negligible effect

Compound: ATWLPPRAANLLMAAS [AS16 peptide]
- wound healing (recovery of scratches) (HUVEC cells [2]): significant compromised recovery of generated scratches
- CNV area by OCTA (laser induced CNV [1]; without light exposure): negligible effect
- HUVEC migration (HUVEC cells [3]): least migrated HUVECs
- therapeutic effect compared with control group, tests in vivo (laser induced CNV [4]): negligible therapeutic effect

Compound: FPNWSLRPMNQM [FM12 peptide]
- gene expression level of IL-2 [5]: promote the gene expression level
- gene expression level of TNF-α [5]: promote the gene expression level
